We go through 22 compounds from patent publication US12479834B2, “Phenol compound or salt thereof” (TAIHO PHARMACEUTICAL CO., LTD., priority 2019, dated 2025).

What is called IC50 is the concentration that inhibits the measured activity by half. Read a high IC50 as weaker potency in that assay.

Molecules are shown by their SMILES.

One assay has as its target T1, G12C K-Ras4B (1-169) (Homo sapiens, UniProt P01116, G12C).
T1 construct: G12C K-Ras4B (1-169) protein, which was a KRAS G12C mutant; His tag (N, cleaved yes); made in house; host or cells: E. coli BL21 (DE3)
The assay is described as follows: Binding to KRAS G12C mutant, compound binding rate by LC-MS. Conditions: final compound concentration 2 μM, 1 μM protein, 2 hours at 25° C. In a few lines:
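Covalent labelling at 2 μM final compound on a mix of 1 μM each wild-type and G12C K-Ras4B (1-169) (E. coli-expressed, tag removed) in 1×TBS, 0.1 mM TCEP, 2 h at 25° C., quenched with formic acid. Intact-protein ESI Q-TOF LC-MS; binding rate from adduct vs unbound protein signal, graded A–E in 20% bands.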

The next assay has as its target T2, KRAS G12C mutant (Homo sapiens, UniProt P01116, G12C).
T2 construct: 50 μM G12C K-Ras4B (1-169) protein and 1 mM BODIPY® FL GDP; His tag (N, cleaved yes); made in house; host or cells: E. coli BL21 (DE3)
Description: Inhibition of SOS1-mediated nucleotide (GDP-GTP) exchange reaction of KRAS G12C mutant, BODIPY FL GDP fluorescence. Format: biochemical. The following applies: preincubated 25° C. 4 hours with 25 nM KRAS G12C bound with BODIPY FL GDP; SOS1 100 nM, GppNHp 1 μM, 30 minutes. The method in brief:
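KRAS G12C (1-169) loaded with BODIPY FL GDP (25 nM) was preincubated with compound (5% DMSO) for 4 h at 25 °C. Exchange then ran 30 min with SOS1 (564-1049, 100 nM) and 1 µM GppNHp. IC50 came from the 485/520 nm fluorescence change, normalized to DMSO and no-GppNHp controls.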

On to `C=CC(=O)N1CC(NC(=O)c2cnc(CNc3cc(CC)c(Cl)cc3O)n2C)C1` [Example 61, N-(1-Acryloylazetidin-3-yl)-2-(((4-chloro-5-ethyl-2-hydroxyphenyl)amino)methyl)-1-methyl-1H-imidazole-5-carboxamide], for which the “binding rate for G12C K-Ras4B (1-169)” value at G12C K-Ras4B (1-169) was “B (60% or more and less than 80%)”. This compound displayed an IC50 at KRAS G12C mutant of 144 nM.

On to `C=CC(=O)N1CC(NC(=O)c2cnc(CNc3cc([Si](C)(C)C)c(Cl)cc3O)n2C)C1` [Example 62, N-(1-Acryloylazetidin-3-yl)-2-(((4-chloro-2-hydroxy-5-(trimethylsilyl)phenyl)amino)methyl)-1-methyl-1H-imidazole-5-carboxamide], for which the “binding rate for G12C K-Ras4B (1-169)” value at G12C K-Ras4B (1-169) is listed as “A (80% or more)”. For the same compound, at KRAS G12C mutant, it took 11 nM to reach half-maximal inhibition (IC50).

As for `C=CC(=O)N1CC(NC(=O)c2cnc(CNc3cc(C4(C)CC4(F)F)c(Cl)cc3O)n2C)C1` (centres unmarked) [Example 63, N-(1-Acryloylazetidin-3-yl)-2-(((4-chloro-5-(2,2-difluoro-1-methylcyclopropyl)-2-hydroxyphenyl)amino)methyl)-1-methyl-1H-imidazole-5-carboxamide], the “binding rate for G12C K-Ras4B (1-169)” value at G12C K-Ras4B (1-169) is “A (80% or more)”. At KRAS G12C mutant, this compound registered an IC50 of 37 nM.

Consider `C=CC(=O)N1CC(NC(=O)c2cnc(CNc3cc(CCC)c(Cl)cc3O)n2C)C1` [Example 64, N-(1-Acryloylazetidin-3-yl)-2-(((4-chloro-2-hydroxy-5-propylphenyl)amino)methyl)-1-methyl-1H-imidazole-5-carboxamide], for which, on G12C K-Ras4B (1-169), the “binding rate for G12C K-Ras4B (1-169)” value was “D (20% or more and less than 40%)”. 366 nM corresponded to half-maximal inhibition against KRAS G12C mutant (IC50).

For `C=CC(=O)N1CC(NC(=O)c2ccc(CNc3cc(C(C)(C)C)c(Br)cc3O)o2)C1` [Example 65, N-(1-Acryloylazetidin-3-yl)-5-(((4-bromo-5-(tert-butyl)-2-hydroxyphenyl)amino)methyl)furan-2-carboxamide], on G12C K-Ras4B (1-169), the “binding rate for G12C K-Ras4B (1-169)” value is recorded as “A (80% or more)”. This compound came in with an IC50 at KRAS G12C mutant of 353 nM.

On to `C=CC(=O)N1CC(NC(=O)c2ccc(CNc3cc(C(C)(C)C)ccc3O)o2)C1` [Example 66, N-(1-Acryloylazetidin-3-yl)-5-(((5-(tert-butyl)-2-hydroxyphenyl)amino)methyl)furan-2-carboxamide], for which the “binding rate for G12C K-Ras4B (1-169)” value on G12C K-Ras4B (1-169) is recorded as “E (less than 20%)”. On KRAS G12C mutant, this compound registered an IC50 of 9800 nM.

Consider `C=CC(=O)N1CC(NC(=O)c2ccc(CNc3cc(C(C)(C)C)c(C#N)cc3O)o2)C1` [Example 67, N-(1-Acryloylazetidin-3-yl)-5-(((5-(tert-butyl)-4-cyano-2-hydroxyphenyl)amino)methyl)furan-2-carboxamide], for which the “binding rate for G12C K-Ras4B (1-169)” value on G12C K-Ras4B (1-169) is “C (40% or more and less than 60%)”. In addition, at KRAS G12C mutant, half-maximal inhibition (IC50) was put at 1030 nM.

Consider `C=CC(=O)N1CC(NC(=O)c2cnc(CNc3cc(C(C)(C)C)c(C)cc3O)n2C)C1` [Example 68, N-(1-Acryloylazetidin-3-yl)-2-(((5-(tert-butyl)-2-hydroxy-4-methylphenyl)amino)methyl)-1-methyl-1H-imidazole-5-carboxamide], for which the “binding rate for G12C K-Ras4B (1-169)” value at G12C K-Ras4B (1-169) is listed as “A (80% or more)”. The compound also showed an IC50 against KRAS G12C mutant of 33 nM.

Consider `C=CC(=O)N1CC(NC(=O)c2cnc(CNc3cc(C(C)(C)C)c(C=C)cc3O)n2C)C1` [Example 69, N-(1-Acryloylazetidin-3-yl)-2-(((5-(tert-butyl)-2-hydroxy-4-vinylphenyl)amino)methyl)-1-methyl-1H-imidazole-5-carboxamide], for which, on G12C K-Ras4B (1-169), the “binding rate for G12C K-Ras4B (1-169)” value was “B (60% or more and less than 80%)”. On KRAS G12C mutant, the IC50 came out at 89 nM.

For the compound `C=CC(=O)N1CC(NC(=O)c2cnc(CNc3cc(C(C)(C)C)c(CC)cc3O)n2C)C1` [Example 70, N-(1-Acryloylazetidin-3-yl)-2-(((5-(tert-butyl)-4-ethyl-2-hydroxyphenyl)amino)methyl)-1-methyl-1H-imidazole-5-carboxamide], the “binding rate for G12C K-Ras4B (1-169)” value on G12C K-Ras4B (1-169) is “B (60% or more and less than 80%)”. Moreover, at KRAS G12C mutant, the IC50 amounted to 84 nM.

Take `C=CC(=O)N1CC(NC(=O)c2cnc(CNc3cc4c(cc3O)CCC4(C)C)n2C)C1` [Example 71, N-(1-Acryloylazetidin-3-yl)-2-(((6-hydroxy-3,3-dimethyl-2,3-dihydro-1H-inden-5-yl)amino)methyl)-1-methyl-1H-imidazole-5-carboxamide]: the “binding rate for G12C K-Ras4B (1-169)” value at G12C K-Ras4B (1-169) was “C (40% or more and less than 60%)”. The compound also came in with an IC50 on KRAS G12C mutant of 221 nM.

With `C=CC(=O)N1CC(NC(=O)c2c(C)nc(CNc3cc4c(cc3O)CCC4(C)C)n2C)C1` [Example 72, N-(1-Acryloylazetidin-3-yl)-2-(((6-hydroxy-3,3-dimethyl-2,3-dihydro-1H-inden-5-yl)amino)methyl)-1,4-dimethyl-1H-imidazole-5-carboxamide], the “binding rate for G12C K-Ras4B (1-169)” value on G12C K-Ras4B (1-169) was “A (80% or more)”. This compound returned an IC50 on KRAS G12C mutant of 164 nM.

With `C=CC(=O)N1CC(NC(=O)c2cnc(CNc3cc(C(C)(C)C)c(Cl)c(F)c3O)n2C)C1` [Example 73, N-(1-Acryloylazetidin-3-yl)-2-(((5-(tert-butyl)-4-chloro-3-fluoro-2-hydroxyphenyl)amino)methyl)-1-methyl-1H-imidazole-5-carboxamide], the “binding rate for G12C K-Ras4B (1-169)” value on G12C K-Ras4B (1-169) was “B (60% or more and less than 80%)”. Also, the IC50 on KRAS G12C mutant is 69 nM.

Turning to `C=CC(=O)N1CC(NC(=O)c2cnc(CNc3cc(C(C)(C)C)cc(C)c3O)n2C)C1` [Example 74, N-(1-Acryloylazetidin-3-yl)-2-(((5-(tert-butyl)-2-hydroxy-3-methylphenyl)amino)methyl)-1-methyl-1H-imidazole-5-carboxamide], the “binding rate for G12C K-Ras4B (1-169)” value at G12C K-Ras4B (1-169) is recorded as “E (less than 20%)”. At KRAS G12C mutant, this compound had an IC50 of 701 nM.

As to `C=CC(=O)N1CC(NC(=O)c2cnc(CNc3cc(S(F)(F)(F)(F)F)ccc3O)n2C)C1` [Example 75, N-(1-Acryloylazetidin-3-yl)-2-(((2-hydroxy-5-(pentafluoro-λ6-sulfaneyl)phenyl)amino)methyl)-1-methyl-1H-imidazole-5-carboxamide], at G12C K-Ras4B (1-169), the “binding rate for G12C K-Ras4B (1-169)” value was “E (less than 20%)”. On KRAS G12C mutant, this compound yielded an IC50 of 661 nM.

On to `C=CC(=O)N1CC(NC(=O)c2c(C(F)(F)F)nc(CNc3cc(C(C)(C)C)c(C)cc3O)n2C(C)C)C1` [Example 77, N-(1-Acryloylazetidin-3-yl)-2-(((5-(tert-butyl)-2-hydroxy-4-methylphenyl)amino)methyl)-1-isopropyl-4-(trifluoromethyl)-1H-imidazole-5-carboxamide], for which the “binding rate for G12C K-Ras4B (1-169)” value on G12C K-Ras4B (1-169) was “D (20% or more and less than 40%)”. At KRAS G12C mutant, this compound came in with an IC50 of 240 nM.

Regarding `C=CC(=O)N1CC(NC(=O)c2ccc(C(C)Nc3cc(C(C)(C)C)c(Cl)cc3O)o2)C1` (centres unmarked) [Example 79, N-(1-Acryloylazetidin-3-yl)-5-(1-((5-(tert-butyl)-4-chloro-2-hydroxyphenyl)amino)ethyl)furan-2-carboxamide], the “binding rate for G12C K-Ras4B (1-169)” value on G12C K-Ras4B (1-169) was “D (20% or more and less than 40%)”. Moreover, the IC50 against KRAS G12C mutant was 3900 nM.

In the case of `C=CC(=O)N1CC(NC(=O)c2cnc(C(C)Nc3cc(C(C)(C)C)c(Cl)cc3O)n2C)C1` (centres unmarked) [Example 80, N-(1-Acryloylazetidin-3-yl)-2-(1-((5-(tert-butyl)-4-chloro-2-hydroxyphenyl)amino)ethyl)-1-methyl-1H-imidazole-5-carboxamide], on G12C K-Ras4B (1-169), the “binding rate for G12C K-Ras4B (1-169)” value was “B (60% or more and less than 80%)”. Moreover, the half-maximal inhibitory concentration (IC50) against KRAS G12C mutant worked out at 104 nM.

For `C=CC(=O)N1CC(NC(=O)c2c(C)nc(C(C)Nc3cc(C(C)(C)C)c(Cl)cc3O)n2C)C1` (centres unmarked) [Example 81, N-(1-Acryloylazetidin-3-yl)-2-(1-((5-(tert-butyl)-4-chloro-2-hydroxyphenyl)amino)ethyl)-1,4-dimethyl-1H-imidazole-5-carboxamide], at G12C K-Ras4B (1-169), the “binding rate for G12C K-Ras4B (1-169)” value was “B (60% or more and less than 80%)”. On KRAS G12C mutant, this compound returned an IC50 of 225 nM.

`C=CC(=O)N1CC(NC(=O)c2cnc(C(C)Nc3cc(C(C)(C)C)c(Cl)c(F)c3O)n2C)C1` (centres unmarked) [Example 82, N-(1-Acryloylazetidin-3-yl)-2-(1-((5-(tert-butyl)-4-chloro-3-fluoro-2-hydroxyphenyl)amino)ethyl)-1-methyl-1H-imidazole-5-carboxamide]: the “binding rate for G12C K-Ras4B (1-169)” value on G12C K-Ras4B (1-169) was “B (60% or more and less than 80%)”. Moreover, on KRAS G12C mutant, the half-maximal inhibitory concentration (IC50) stood at 1040 nM.

As for `C=CC(=O)N1CC(NC(=O)c2cnc(CNc3nc(C(C)(C)C)c(Cl)cc3O)n2C)C1` [Example 83, N-(1-Acryloylazetidin-3-yl)-2-(((6-(tert-butyl)-5-chloro-3-hydroxypyridin-2-yl)amino)methyl)-1-methyl-1H-imidazole-5-carboxamide], on G12C K-Ras4B (1-169), the “binding rate for G12C K-Ras4B (1-169)” value was “B (60% or more and less than 80%)”. Besides, at KRAS G12C mutant, the IC50 was 23 nM.

`C=CC(=O)N1CC(NC(=O)c2cnc(CNc3nc([Si](C)(C)C)c(Cl)cc3O)n2C)C1` [Example 84, N-(1-Acryloylazetidin-3-yl)-2-(((5-chloro-3-hydroxy-6-(trimethylsilyl)pyridin-2-yl)amino)methyl)-1-methyl-1H-imidazole-5-carboxamide]: the “binding rate for G12C K-Ras4B (1-169)” value on G12C K-Ras4B (1-169) is “A (80% or more)”. Moreover, the half-maximal inhibitory concentration (IC50) against KRAS G12C mutant was 63 nM.
